Test results as given in patent US12286401B2, “Small molecules that sensitize HIV-1 infected cells to antibody dependent cellular cytotoxicity” (THE TRUSTEES OF THE UNIVERSITY OF PENNSYLVANIA, priority 2018, dated 2025).

How the values were obtained:
[1] = system: CH58TF infected primary CD4+ T-cells; test: Recognition of HIV-1 infected cells by 17b (flow cytometry cell-surface staining); assay type: cell-based; settings: Human immunodeficiency virus 1, T-cell, read-out: Fold Over DMSO (17b, n = 1)
Procedure: (§1) Cell-surface staining of primary CD4+ T cells from healthy HIV uninfected individuals or CEM-NKr cells is performed, as described in Prevost, “Influence of the Envelope gp120 Phe 43 Cavity on HIV-1 Sensitivity to Antibody-Dependent Cell-Mediated Cytotoxicity Responses,” 2017, J. Virol 91; Richard, “CD4 mimetics sensitize HIV-1-infected cells to ADCC,” 2015, Proc. Natl. Acad. Sci. USA, 112:E2687-2694; Richard, “Small CD4 Mimetics Prevent HIV-1 Uninfected Bystander CD4+ T Cell Killing Mediated by Antibody-dependent Cell-mediated Cytotoxicity,” 2016, EBioMedicine 3:122-134; Veillette, “The HIV-1 gp120 CD4-Bound Conformation Is Preferentially Targeted by Antibody-Dependent Cellular Cytotoxicity-Mediating Antibodies in Sera from HIV-1-Infected Individuals,” 2015, J. Virol., 89:545-551; Veillette, “Interaction with cellular CD4 exposes HIV-1 envelope epitopes targeted by antibody-dependent cell-mediated cytotoxicity,” 2014, J. Virol., 88:2633-2644; Richard, “Uninfected Bystander Cells Impact the Measurement of HIV-Specific Antibody-Dependent Cellular Cytotoxicity Responses,” 2018, MBio. 9(2): e00358-18; Richard, “BST-2 Expression Modulates Small CD4-Mimetic Sensitization of HIV-1-Infected Cells to Antibody-Dependent Cellular Cytotoxicity,” 2017, J. Virol. 91(11):e00219-17. Binding of HIV-1 infected cells by HIV+ sera (1:1000 dilution) or anti-Env Abs (such as 17b) is performed […] in vitro infection at 37° C. in presence of different concentrations of the MCG analogs or with equivalent volume of vehicle (DMSO). Cells infected with HIV-1 primary isolates are stained intracellularly for HIV-1 p24 using the Cytofix/Cytoperm Fixation/Permeabilization Kit (BD Biosciences, Mississauga, ON, Canada) and then fluorescent anti-p24 mAb (PE-anti-p24, clone KC57; Beckman Coulter/Immunotech, Hialeah, FL) (1:100 final concentration). The percentage of infected cells (p24^+ or GFP+ cells) is determined by gating the living cell population based on the viability dye staining. Samples are analyzed on an LSRII cytometer (BD Biosciences, Mississauga, ON, Canada) and data analysis is performed using FlowJo vX0.7 (Tree Star, Ashland, OR, USA).
(§2) Briefly, Primary CD4 T cells isolated from PBMC were infected with HIV-1CH58TF for 48 hours. For cell surface staining, 5 μg/ml 17b (FIG. 15A) or 1:1000 diluted HIV+ plasma (n=15) (FIG. 15B) were used in the presence of the different MCG analogs (50 μM), (+)-BNM-III-170 or with an equivalent volume of vehicle (DMSO). An Alexa Fluor 647-conjugated anti-human IgG secondary Ab was then used for fluorescent labeling. For ADCC (FIG. 15C), infected cells were used as target cells in a FACS-based ADCC assay that measures the killing of infected (p24+ cells). See, Madani, 2016, J. Virol., 90:5031-5046. The assay determines susceptibility to ADCC mediated by a 1/1,000 dilution of plasma from 15 HIV-1-infected individuals in the presence of the different MCG analogs (50 μM), (+)-BNM-III-170 (50 μM) or with an equivalent volume of vehicle (DMSO). Correlation between cell-surface staining with HIV+ plasma and ADCC was calculated using the Spearman rank correlation (FIG. 15D).

[2] = system: HIV-1JR-FL EnvΔCT expressed at the surface of HOS cells; test: Cell-based ELISA (CBE), 17b readout; settings: MCG analogs 50 μM; BNM-III-170 5 μM; 2G12 and DMSO normalized
In short: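 HOS cells transiently expressing cytoplasmic-tail-truncated HIV-1JR-FL Env were treated 30 min at room temperature with compounds (50 μM), sCD4 ([…]) or DMSO, then 1 h with 17b antibody. Bound 17b was detected by HRP-conjugated anti-Fc chemiluminescence; values are fold over BNM-III-170 (5 μM), normalized to 2G12 and DMSO.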

[3] = system: CH58TF infected primary CD4+ T-cells; test: HIV+ patient sera/plasma recognition of CH58TF infected primary CD4+ T-cells (flow cytometry cell-surface staining); assay type: cell-based, HIV-1; settings: Human immunodeficiency virus 1, T-cell, read-out: Fold Over DMSO (patient sera, n = 3)
Procedure: as §1
HIV+ Patient Sera (n=3) Recognition of CH58TF Infected Primary CD4+ T-Cells
Staining with patient sera and 50 μM of compounds given as a fold change over DMSO (vehicle).
as §2

Solubility in PBS = assay type: physicochemical; settings: Yes/NO

| Structure (SMILES) | fold induction at 50 µM [1] | Fold over BNM-III-170 - 17b binding (±0.05) [2] [fold] | fold induction at 50 µM [3] | Solubility (in PBS) (Solubility in PBS) |
| --- | --- | --- | --- | --- |
| O=C(Nc1ccc(Cl)c(F)c1)C1CN(S(=O)(=O)c2ccccc2)CCN1 (centres unmarked) [MCG-III-216-A03] | 1.47 | 0.11 | 1.05 | Yes |
| CS(=O)(=O)N1CCC[C@H](C(=O)Nc2ccc(F)c(Cl)c2)C1 [(S)-MCG-III-085-A02] | 2.15 | 0.22 | 1.13 | Yes |
| CS(=O)(=O)N1CCC[C@H](C(=O)Nc2ccc(Cl)c(Br)c2)C1 [(S)-MCG-III-085-A05] | 2.15 | 0.16 | 1.11 | Yes |
| Cn1cnc(S(=O)(=O)N2CCN(C(=O)OC(C)(C)C)C(C(=O)Nc3ccc(Cl)c(F)c3)C2)c1 (centres unmarked) [MCG-III-212-A04] | 1.04 | 0.06 | 0.924 | Yes |
| CS(=O)(=O)N1CC(C(=O)Nc2ccc(Cl)c(F)c2)Cc2ccccc21 (centres unmarked) [MCG-III-214-A01] | 1.39 | 0.24 | 1.29 | Yes |
| CS(=O)(=O)N1CCC[C@H](C(=O)Oc2ccc(Cl)c(F)c2)C1 [(S)-MCG-III-213-A01] | 1.08 | 0.07 | 1.08 | Yes |
| CS(=O)(=O)N1CCC[C@H](C(=O)Nc2ccc(C(F)(F)F)cc2)C1 [(S)-MCG-III-027-A04] | 1.07 | 0.17 | 1.4 | Yes |
| CCS(=O)(=O)N1CCC[C@H](C(=O)Nc2ccc(Cl)c(Cl)c2)C1 [(S)-MCG-III-085-C03] | 3.83 | 0.25 | 1.65 | Yes |
| CCS(=O)(=O)N1CCNC(C(=O)Nc2ccc(Cl)c(F)c2)C1 (centres unmarked) [MCG-III-212-A02] | 3.95 | 0.36 | 1.85 | Yes |
| CCS(=O)(=O)N1CCC[C@H](C(=O)Nc2ccc(F)c(F)c2)C1 [(S)-MCG-III-085-C04] | 3.95 | 0.26 | 1.68 | Yes |
| CS(=O)(=O)N1CCC[C@H](C(=O)Nc2ccc(Cl)c(Cl)c2)C1 [(S)-MCG-III-085-A03] | 3.34 | 0.19 | 1.46 | Yes |
| CS(=O)(=O)N1CCC[C@H](C(=O)Nc2ccc(Br)c(Cl)c2)C1 [(S)-MCG-III-085-A06] | 3.3 | 0.14 | 1.61 | Yes |
| CS(=O)(=O)N1CCOC(C(=O)Nc2ccc(Cl)c(F)c2)C1 (centres unmarked) [MCG-III-211-A01] | 2.63 | 0.28 | 1.47 | Yes |
| CCS(=O)(=O)N1CCC[C@H](C(=O)Nc2ccc(F)c(Cl)c2)C1 [(S)-MCG-III-085-C02] | 2.15 | 0.20 | 1.19 | Yes |
| CCS(=O)(=O)N1CCC[C@H](C(=O)Oc2ccc(Cl)c(F)c2)C1 [(S)-MCG-III-213-A02] | 1.07 | 0.07 | 1.03 | Yes |
| O=C(Nc1ccc(Cl)c(F)c1)C1CNCCN1 (centres unmarked) [MCG-III-216-A01] | 1.73 | 0.21 | 0.999 | Yes |
| CCS(=O)(=O)N1CCC[C@H](C(=O)Nc2ccc(Cl)c(Br)c2)C1 [(S)-MCG-III-085-C05] | 1.77 | 0.26 | 1.04 | Yes |
| Cn1cnc(S(=O)(=O)N2CCC[C@H](C(=O)Oc3ccc(Cl)c(F)c3)C2)c1 [(S)-MCG-III-213-A04] | 1.06 | 0.10 | 1.07 | Yes |
| CS(=O)(=O)N1CCC[C@H](C(=O)Nc2ccc(F)c(F)c2)C1 [(S)-MCG-III-085-A04] | 3 | 0.10 | 1.31 | Yes |
| CC(C)(C)OC(=O)N1CCN(S(C)(=O)=O)CC1C(=O)Nc1ccc(Cl)c(F)c1 (centres unmarked) [MCG-III-212-A01] | 0.968 | 0.06 | 0.982 | Yes |
| CCS(=O)(=O)N1CCOC(C(=O)Nc2ccc(Cl)c(F)c2)C1 (centres unmarked) [MCG-III-211-A02] | 3.64 | 0.33 | 1.81 | Yes |
| Cn1cnc(S(=O)(=O)N2CCOC(C(=O)Nc3ccc(Cl)c(F)c3)C2)c1 (centres unmarked) [MCG-III-211-A04] | 3.61 | 0.35 | 1.63 | Yes |
| Cn1cnc(S(=O)(=O)N2CCNC(C(=O)Nc3ccc(Cl)c(F)c3)C2)c1 (centres unmarked) [MCG-III-216-A04] | 1.24 | 0.10 | 0.845 | Yes |
